In test [1] the test system is gp100 antigen in MU-X melanoma cells. Kind of test: Flow cytometric analysis of gp100 (HMB) staining in MU-X low antigen-expressing cells. It counts as cell-based, human. Here is the method: (§1) Determination of protein Antigen in Tumor Cells via Flow Cytometric Analysis: To evaluate expression of cytoplasmic Melan-A/MART-1 antigen in melanoma tumor cell lines, cells were first fixed for 10′ in 1% paraformaldehyde; the cells are pelleted and incubated for 5′ in 0.1% saponin prior to washing and addition of monoclonal antibody specific for Melan-A/MART-1, A-103 (Ramirez-Montagut, et al., supra) for 45′ at 22° C. Following two washes, the cells were stained for 30′ with FITC-conjugated goat-anti-mouse Ig antibody (DAKO, Carpenteria, Calif.) prior to fixation in 1% paraformaldehyde and analysis by flow cytometry (FACScan, Becton-Dickinson, Mt. View, Calif.). Histograms of fluorescence staining were generated for comparison of anti-Melan-A/MART-1 staining of various cell populations. Mean channel fluorescence was calculated using the “LYSIS” software provided by the manufacturer. Gp100 expression was determined similarly using the HMB45 monoclonal antibody.
Background: Flow cytometry measures light scatter and fluorescence of single cells or particles in a stream.

Test [2] concerns Melan-A/MART-1 in MITF-M transfected A375 tumor cells. The conditions noted are these: 24 hours, U0126 10 μM (FIG. 6). Here is the method: (§2) Primers were designed from appropriate GenBank mRNA and genomic entries and designed to be intron-spanning to prevent simultaneous amplification of traces of genomic DNAs. Where this was not possible RNAs were treated with RNase-free DNase I and repurified.
(§3) To express MITF-M in cell lines expressing low levels of Melan-A/MART-1, MITF-M coding sequence was amplified from MITF-M-positive cells and cloned in an SV40-promoter expression vector (pSV21ink); translation of the MITF-M insert uses optimal Kozak initiation signals (Kozak (1999). Gene 234:187). Constructs were transfected into low-Melan-A/MART-1 expressor melanoma (MU-X and A375). In all studies controls comprised empty vector, transfection reagents in the absence of added DNA, and corresponding untransfected cells. Data shown in FIG. 6 for A375 and MU-X tumor cells transfected with MITF-M for 24 hours in the presence (10 μM) or absence of U0126 before PCR amplification of Melan-A/MART-1.

Test [3] deals with Melan-A/MART-1 in MITF-M transfected MU-X tumor cells. The conditions noted are these: 24 hours, U0126 10 μM (FIG. 6). On the procedure:
as §2, §3

The subject of test [4] is gp100 antigen in MU-89 melanoma cells. Kind of test: Flow cytometric analysis of gp100 (HMB45 staining) in MU-89 cells. It counts as cell-based, human. The conditions noted are these: HMB 45 staining, control MU-89 41.6. On the procedure:
as §1

For test [5], the system named is melanocyte-related genes in MU-89 cells. Kind of test: RT-PCR of melanoma gene expression in MU-89 cells. It counts as cell-based, human. The conditions noted are these: MU-89 cells (FIG. 5).

With `Nc1ncn([C@H]2C[C@H](O)[C@@H](CO)O2)c(=O)n1` [5 azadeoxycytidine], the “effect on interferon-beta induced gp100 expression” value in test [1] (gp100 (HMB) staining (FIG. 4)) was “augmented”.
For the molecule `Nc1ncn([C@@H]2O[C@H](CO)[C@@H](O)[C@H]2O)c(=O)n1` [5-AZA, 5-azacytidine], the “gp100 mean channel fluorescence” value in test [1] (MU-X cells, 5-AZA 40uM, MU-X control 12.8) worked out at 39.0.
Turning to `N#CC(=C(/N)Sc1ccccc1N)/C(C#N)=C(\N)Sc1ccccc1N` [U0126], the Melan-A/MART-1 expression result in test [2] and in test [3] was “augmented enhancement” in each case.

B1: OSM: Recombinant human oncostatin M (rhOSM) from R&D Systems (protein, UniProt P13725 26-221, looked up)
Oncostatin-M: AAIGSCSKEYRVLLGQLQKQTDLMQDTSRLLDPYIRIQGLDVPKLREHCRERPGAFPSEETLRGLGRRGFLQTLNATLGCVLHRLADLEQRLPKAQDLERSGLNIEDLEKLQMARPNILGLRNNIYCMAQLLDNSDTAEPTKAGRGASQPPTPTPASDAFQRKLEGCRFLHGYHRFMHSVGRVFSKWGESPNRSRR
As for B1, the “gp100 mean channel fluorescence” value in test [4] worked out at 29.5. Further, in test [5], the MITF-A isoform expression entry is listed as “not detectably responsive”; the MITF-M expression entry is recorded as “down-modulates”; the “expression of Melan-A/MART-1, tyrosinase, gp100, TRP-1 and TRP-2 genes” value was “induces down-modulation”.

The values above are taken from patent US8071321B2, “Methods for up-regulating antigen expression in tumors” (CytoCure LLC, priority 2002, dated 2011).
